Literature values as cited in patent US6630178B1, “Composition comprising soy protein, dietary fibres and a phytoestrogen compound and use thereof in the prevention and/or treatment of cardiovascular diseases” (Nutri Pharma Asa, priority 1998, dated 2003).

Test system: estrogenic effect
Settings: estradiol = 100; in vitro

O=c1c(-c2ccc(O)cc2)coc2cc(O)ccc12 [daidzein]
relative estrogenic potency as compared to estradiol: 0.013
